Test results taken from US20050261162A1, “Pharmaceutical composition for preventing and treating cancer and treating an inflammation” (priority 2001, published 2005).
Where “and” joins values, the source holds several entries; their conditions need not be identical. Equal values may be shown once.

Key:
[1] = tested on: quinone reductase (QR); assay: Induction of quinone reductase activity in Hepa 1c1c7 cells; format: cell-based, rat; conditions: 48 hours, compared with the control
Method: Hepa 1c1c7 cell (2.5×10^4/ml), a liver cancer cell of […], was seeded into 96 well plate and was cultured in 10% FBS-αL-MEM (Gibco BRL) at 37° C. for 24 hours in 5% CO2 of humidified air. 190 μl of fresh media and 10 μl of xanthorrhizol dissolved in 10% of DMSO was added to above culture media and it was cultured under 5% CO2 at 37° C. for 48 hours. The culture media were discarded, and after washing with PBS (phosphate buffered saline), 50 μl of reaction solution containing 0.8% digitonin and 2 mM EDTA was added to each well, and it was cultured for 10 minutes to destroy the cell. […] Then, 50 μl of 5 mM potassium phosphate (pH 7.4) solution containing 0.3 mM of dicoumarol was added to terminate the reaction and the absorbance at 595 nm was measured spectrophotometrically.
To assess the effect of xanthorrhizol on cell growth, protein was measured in the 2nd plate set cultured under same condition above. […] And 200 μl of 0.5% SDS was added to cell and mixed, then the absorbance at 595 nm was measured spectophotometrically.
To estimate the experimental result, firstly, QR specific activity of each group treated with xanthorrhizol and the control group was calculated by following equation 1. […] QR specific activity=(Absorbance change of MTT per min/Absorbance change of crystal violet)×3247 nmol/mg [Equation 1] […]

[2] = tested on: Salmonella typhimurium TA102 strain; assay: Antimutagenic effect on mutagenesis induced by reactive oxygen species (His+ revertant colonies); format: cell-based; conditions: compared with curcumin as positive control
Method: The antimutagenic effect of xanthorrhizol was examined in Salmonella typhimurium TA102 strain including mutagenesis with reactive oxygen species (Levin, D. E., et al., Proc. Natl. Acad. Sci. U. S. A., 79;7445-7449, 1982).
Salmonella typhimurium TA102 strain was cultured in Oxoid nutrient broth medium for 11 hours. 100 μl of above-cultured medium was added to 600 μl of the reaction mixture containing tert-butylhydroperoxide (100 μg/plate) or hydrogen peroxide (50 μg/plate) with or without xanthorrhizol and incubated for 30 minutes at 37° C. Curcumin was added instead of xanthorrhizol in positive control. The concentration of xanthorrhizol or curcumin was 0, 10, 20, 40, 60 nmol/plate and 2, 4, 8, 10, 20, 50 nmol/plate respectively in experiment to examine the inhibitory effect of xanthorrhizol against tert-butylhydroperoxide and hydrogen peroxide-induced mutagenesis. The reaction mixture was transferred to 2 ml of top agar solution containing 0.5 mM of histidine and biotin and was homogeneously mixed. It was poured to minimal glucose plate. The plates were incubated for 48 hours at 37° C. and the number of His+ revertant colonies counted.

[3] = molecular target: T1, COX-2 (Mus musculus, UniProt Q05769); assay: Inhibition of LPS-induced COX-2 activity (PGE2 production) in RAW264.7 macrophage cells; format: cell-based; conditions: LPS 1 μg/ml, 16 hr
T1 construct: endogenous in cells; host or cells: RAW264.7 macrophage cells, LPS-stimulated
T1 sequence (Q05769 18-604): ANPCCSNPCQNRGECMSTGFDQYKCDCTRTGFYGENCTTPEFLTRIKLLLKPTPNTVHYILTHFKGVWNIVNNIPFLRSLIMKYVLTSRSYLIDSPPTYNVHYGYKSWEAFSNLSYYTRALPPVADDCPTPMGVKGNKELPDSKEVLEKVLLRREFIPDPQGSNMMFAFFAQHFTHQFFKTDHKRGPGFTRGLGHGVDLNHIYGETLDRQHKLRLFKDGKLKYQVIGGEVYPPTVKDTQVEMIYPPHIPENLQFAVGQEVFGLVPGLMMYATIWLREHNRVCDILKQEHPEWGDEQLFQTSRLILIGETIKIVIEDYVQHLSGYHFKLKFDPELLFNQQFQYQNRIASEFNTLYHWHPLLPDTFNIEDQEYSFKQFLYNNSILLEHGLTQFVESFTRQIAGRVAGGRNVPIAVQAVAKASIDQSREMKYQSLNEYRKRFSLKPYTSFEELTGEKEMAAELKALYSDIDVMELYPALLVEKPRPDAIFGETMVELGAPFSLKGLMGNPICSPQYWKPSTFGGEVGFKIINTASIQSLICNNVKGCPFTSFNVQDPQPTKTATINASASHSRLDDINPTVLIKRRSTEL
Method: If a cell was treated with LPS, the activity of COX-2 increases. On the basis of this fact, to investigate the effect of xanthorrhizol on LPS-induced COX-2 activity, the quantity of PGE2 released from cells was measured as follows.
RAW264.7 macrophage cells were maintained in DMEM supplemented with penicillin-streptomycin and 10% FBS at 37° C., in 5% CO2 of humidified air. The cells (10×10^5 cells/ml, 200 μl) were allowed to adhere for 4 hr in the presence of aspirin (500 μM) in a 96-well culture plate to inhibit irreversibly COX activity in cells, washed 3 times with media, and then incubated in the fresh medium with 1 μg/ml of LPS. Xanthorrhizol was simultaneously added to each well. After an additional 16 hr incubation, the media were recovered and analyzed by PGE2 enzyme immunometric assay. The medium recovered from each well was added to each well attached anti-PGE2 antibody (Amersham Life Science, Arlington Heights, Ill.) with PGE2-acetylcholineesterase tracer, incubated for 18 hr at room temperature and then washed five times with 0.05% Tween 20-phosphate buffer solution. […] Absorbance at 405 nm was measured. PGE2 in each medium treated with xanthorrhizol was quantified in calibration curve graphed with standard PGE2. […] The percentage inhibition was expressed as [1-(PGE2 level of sample/PGE2 level of vehicle treated−control)]×100.

For CC(C)=CCC[C@@H](C)c1ccc(C)c(O)c1 [xanthorrhizol], the “QR induction ratio (treated/control)” value ([1]; 0.4 μM) was “about 125%”, the “QR induction ratio (treated/control)” value ([1]; 50 μM) was about 130% and the “inhibitory effect against mutagenesis induced by hydrogen peroxide” value ([2]; hydrogen peroxide 50 μg/plate) was “more excellent inhibitory effect”. For the same molecule, the “inhibitory effect against mutagenesis induced by tert-butylhydroperoxide” value ([2]; tert-butylhydroperoxide 100 μg/plate) was “more excellent inhibitory effect”, the IC50 [3] was 321 nM and 320 nM and the “percentage inhibition of LPS-induced PGE2 production (COX-2 activity)” value ([3]; concentration of not less than 1 μg/ml) was “not less than 98%”.
